Results from PubChem BioAssay (NCI).
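Briefly, cells in 96-well plates were exposed to five compound concentrations for 48 h, and endpoints were estimated by linear interpolation. The concentration for 50% growth inhibition is given as GI50. TGI: total growth inhibition.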

What was measured:
Assay in all cases: NCI tumour cell line growth inhibition, 48 h
SK-MEL-28 melanoma = tested on: SK-MEL-28 melanoma
PC-3 prostate = tested on: PC-3 prostate
HCT-15 colon = tested on: HCT-15 colon
OVCAR-8 ovarian = tested on: OVCAR-8 ovarian
IGROV1 ovarian = tested on: IGROV1 ovarian
SN12C renal = tested on: SN12C renal
HOP-92 NSCLC = tested on: HOP-92 NSCLC
SW-620 colon = tested on: SW-620 colon
CAKI-1 renal = tested on: CAKI-1 renal
UACC-257 melanoma = tested on: UACC-257 melanoma
SK-OV-3 ovarian = tested on: SK-OV-3 ovarian
HS 578T breast = tested on: HS 578T breast
NCI-H522 lung = tested on: NCI-H522 lung
A549 NSCLC = tested on: A549 NSCLC
OVCAR-4 ovarian = tested on: OVCAR-4 ovarian
HCC-2998 colon = tested on: HCC-2998 colon
NCI/ADR-RES ovarian = tested on: NCI/ADR-RES ovarian
EKVX NSCLC = tested on: EKVX NSCLC
SNB-75 CNS = tested on: SNB-75 CNS
COLO 205 colon = tested on: COLO 205 colon
TK-10 renal = tested on: TK-10 renal
UO-31 renal = tested on: UO-31 renal
LOX IMVI melanoma = tested on: LOX IMVI melanoma
DU-145 prostate = tested on: DU-145 prostate
OVCAR-3 ovarian = tested on: OVCAR-3 ovarian
CCRF-CEM leukemia = tested on: CCRF-CEM leukemia
BT-549 breast = tested on: BT-549 breast
MOLT-4 leukemia = tested on: MOLT-4 leukemia
KM12 colon = tested on: KM12 colon
OVCAR-5 ovarian = tested on: OVCAR-5 ovarian
MDA-MB-468 breast = tested on: MDA-MB-468 breast
HCT-116 colon = tested on: HCT-116 colon
RPMI-8226 leukemia = tested on: RPMI-8226 leukemia
HOP-62 NSCLC = tested on: HOP-62 NSCLC
T-47D breast = tested on: T-47D breast
M14 melanoma = tested on: M14 melanoma
UACC-62 melanoma = tested on: UACC-62 melanoma
786-0 renal = tested on: 786-0 renal
MALME-3M melanoma = tested on: MALME-3M melanoma
SNB-19 CNS = tested on: SNB-19 CNS
SF-295 CNS = tested on: SF-295 CNS
RXF 393 renal = tested on: RXF 393 renal
U251 CNS = tested on: U251 CNS
MDA-MB-435 = tested on: MDA-MB-435
SK-MEL-2 melanoma = tested on: SK-MEL-2 melanoma
MDA-MB-231 breast = tested on: MDA-MB-231 breast
NCI-H226 lung = tested on: NCI-H226 lung
SR leukemia = tested on: SR leukemia
K-562 leukemia = tested on: K-562 leukemia
NCI-H460 lung = tested on: NCI-H460 lung
HL-60(TB) leukemia = tested on: HL-60(TB) leukemia
SK-MEL-5 melanoma = tested on: SK-MEL-5 melanoma
MCF7 breast = tested on: MCF7 breast
ACHN renal = tested on: ACHN renal
NCI-H23 lung = tested on: NCI-H23 lung
SF-268 CNS = tested on: SF-268 CNS
HT29 colon = tested on: HT29 colon
SF-539 CNS = tested on: SF-539 CNS

COc1cc(NC(=O)c2cccc(C3CCc4c(cc(OC)c(OC)c4OC)O3)c2)cc(OC)c1OC (stereo not given)
GI50 (SK-MEL-28 melanoma): 4.64 µM | TGI (SK-MEL-28 melanoma): > 100 µM | GI50 (PC-3 prostate): 2660 nM | TGI (PC-3 prostate): > 100 µM | GI50 (HCT-15 colon): 2700 nM | TGI (HCT-15 colon): > 100 µM | GI50 (OVCAR-8 ovarian): 3.2 µM | TGI (OVCAR-8 ovarian): > 100 µM | GI50 (IGROV1 ovarian): 4.15 µM | TGI (IGROV1 ovarian): > 100 µM | GI50 (SN12C renal): 3.47 µM | TGI (SN12C renal): > 100 µM | GI50 (HOP-92 NSCLC): 3.96 µM | TGI (HOP-92 NSCLC): > 100 µM | GI50 (SW-620 colon): 3.52 µM | TGI (SW-620 colon): > 100 µM | GI50 (CAKI-1 renal): 2370 nM | TGI (CAKI-1 renal): > 100 µM | GI50 (UACC-257 melanoma): 3.89 µM | TGI (UACC-257 melanoma): > 100 µM | GI50 (SK-OV-3 ovarian): 3.65 µM | TGI (SK-OV-3 ovarian): > 100 µM | GI50 (HS 578T breast): 2040 nM | TGI (HS 578T breast): 6.74 µM | GI50 (NCI-H522 lung): 1560 nM | TGI (NCI-H522 lung): 4.63 µM | GI50 (A549 NSCLC): 3.91 µM | TGI (A549 NSCLC): > 100 µM | GI50 (OVCAR-4 ovarian): 4.49 µM | TGI (OVCAR-4 ovarian): > 100 µM | GI50 (HCC-2998 colon): 7.64 µM | TGI (HCC-2998 colon): > 100 µM | GI50 (NCI/ADR-RES ovarian): 2100 nM | TGI (NCI/ADR-RES ovarian): 6.91 µM | GI50 (EKVX NSCLC): 6.37 µM | TGI (EKVX NSCLC): > 100 µM | GI50 (SNB-75 CNS): 2330 nM | TGI (SNB-75 CNS): 7.99 µM | GI50 (COLO 205 colon): 2000 nM | TGI (COLO 205 colon): 5.31 µM | GI50 (TK-10 renal): 4.32 µM | TGI (TK-10 renal): > 100 µM | GI50 (UO-31 renal): 2590 nM | TGI (UO-31 renal): 19.2 µM | GI50 (LOX IMVI melanoma): 3.62 µM | TGI (LOX IMVI melanoma): > 100 µM | GI50 (DU-145 prostate): 3.83 µM | TGI (DU-145 prostate): > 100 µM | GI50 (OVCAR-3 ovarian): 3.42 µM | TGI (OVCAR-3 ovarian): > 100 µM | GI50 (CCRF-CEM leukemia): 2750 nM | TGI (CCRF-CEM leukemia): > 100 µM | GI50 (BT-549 breast): 1990 nM | TGI (BT-549 breast): 8.22 µM | GI50 (MOLT-4 leukemia): 2860 nM | TGI (MOLT-4 leukemia): 27.5 µM | GI50 (KM12 colon): 3.1 µM | TGI (KM12 colon): > 100 µM | GI50 (OVCAR-5 ovarian): 5.01 µM | TGI (OVCAR-5 ovarian): > 100 µM | GI50 (MDA-MB-468 breast): 1240 nM | TGI (MDA-MB-468 breast): 4.41 µM | GI50 (HCT-116 colon): 3.69 µM | TGI (HCT-116 colon): > 100 µM | GI50 (RPMI-8226 leukemia): 1950 nM | TGI (RPMI-8226 leukemia): 12.7 µM | GI50 (HOP-62 NSCLC): 3.51 µM | TGI (HOP-62 NSCLC): > 100 µM | GI50 (T-47D breast): 2500 nM | TGI (T-47D breast): 9.29 µM | GI50 (M14 melanoma): 2530 nM | TGI (M14 melanoma): 71 µM | GI50 (UACC-62 melanoma): 1740 nM | TGI (UACC-62 melanoma): 8.33 µM | GI50 (786-0 renal): 4.23 µM | TGI (786-0 renal): > 100 µM | GI50 (MALME-3M melanoma): 2450 nM | TGI (MALME-3M melanoma): > 100 µM | GI50 (SNB-19 CNS): 5.94 µM | TGI (SNB-19 CNS): > 100 µM | GI50 (SF-295 CNS): 2460 nM | TGI (SF-295 CNS): > 100 µM | GI50 (RXF 393 renal): 1590 nM | TGI (RXF 393 renal): 8.46 µM | GI50 (U251 CNS): 3.6 µM | TGI (U251 CNS): > 100 µM | GI50 (MDA-MB-435): 497 nM | TGI (MDA-MB-435): 3.33 µM | GI50 (SK-MEL-2 melanoma): 2660 nM | TGI (SK-MEL-2 melanoma): > 100 µM | GI50 (MDA-MB-231 breast): 4.12 µM | TGI (MDA-MB-231 breast): > 100 µM | GI50 (NCI-H226 lung): 2550 nM | GI50 (SR leukemia): 925 nM | TGI (SR leukemia): 84.9 µM | GI50 (K-562 leukemia): 1750 nM | TGI (K-562 leukemia): > 100 µM | GI50 (NCI-H460 lung): 3.24 µM | TGI (NCI-H460 lung): > 100 µM | GI50 (HL-60(TB) leukemia): 2040 nM | TGI (HL-60(TB) leukemia): 5.79 µM | GI50 (SK-MEL-5 melanoma): 1580 nM | TGI (SK-MEL-5 melanoma): 4.52 µM | GI50 (MCF7 breast): 2290 nM | TGI (MCF7 breast): > 100 µM | GI50 (ACHN renal): 3.77 µM | TGI (ACHN renal): > 100 µM | GI50 (NCI-H23 lung): 4.37 µM | TGI (NCI-H23 lung): > 100 µM | GI50 (SF-268 CNS): 3.78 µM | TGI (SF-268 CNS): > 100 µM | GI50 (HT29 colon): 2460 nM | TGI (HT29 colon): 6.07 µM | GI50 (SF-539 CNS): 2130 nM | TGI (SF-539 CNS): 5.81 µM
